Measurements: patent publication US20250368620A1, “ARNT Degrading Compounds and Uses Thereof” (Celgene Corporation, priority 2024, published 2025)

molecular target: T1, ARNT (Homo sapiens, UniProt P27540); assay: ARNT degradation in a HiBiT system (HEK293 ARNT-HiBiT Knock-In cell line); assay type: cell-based; settings: half-maximal degradation concentration; HEK293 ARNT-HiBiT KI cells, 4h of treatment, luminescence
T1 construct: an sgRNA targeting the C-terminus of the ARNT gene near the stop codon; endogenous in cells; host or cells: HEK293 ARNT-HiBiT knock-in, homozygous clone
Procedure: Compounds of Formula (I) were tested for ARNT degradation in a HiBiT system. A HEK293 ARNT-HiBiT Knock-In cell line was generated using CRISPR/Cas9 technology. Briefly, HEK293 cells were electroporated with the Neon system with an sgRNA targeting the C-terminus of the ARNT gene near the stop codon ([…] (SEQ ID NO: 1); chr 1: 150,812,014-150,812,034) and the HiBiT donor DNA template (80 nucleotides homology arms upstream and downstream of the insert site, with a GSGS (SEQ ID NO: 2) linker). A homozygous clone was selected after Sanger sequencing, and genetic edition was further validated using Nano-Glo HiBiT blotting system. HEK293 ARNT-HiBiT KI cells were cultured in DMEM+10% FBS at 37° C. and 5% CO2. For the assay, cells were seeded at 10,000 cells/well in white 384 plates (Corning #3570) in 22.5 μl of culture medium without phenol red. Test compounds were spotted in 384-well plates by an acoustic dispenser (10 concentrations, semi-log dilution, in 100% DMSO). Before treatment, compounds were diluted 1:100 or 1:1,000 in culture medium without phenol red, and cells were treated with 2.5 μl of diluted compounds 18h after seeding (final top concentration: 3 or 0.3 μM). After 4h of treatment, plates were equilibrated at room temperature for 30 min, and 25 μl of NANO-GLO® HiBiT Lytic reagent were added per well. Luminescence was measured on a plate reader 15 min after incubation with the detection reagent. Data were analyzed using the Genedata Screener Software version 19, and normalization was performed using the DMSO treated wells as Neutral Control and medium only (without cells) wells as Scale Reference. For curve fitting, the smart fit condensing method with a 4-parameters Hill model was used and the half-maximal degradation concentration (DC50) was calculated.

T1 sequence (P27540 whole entry): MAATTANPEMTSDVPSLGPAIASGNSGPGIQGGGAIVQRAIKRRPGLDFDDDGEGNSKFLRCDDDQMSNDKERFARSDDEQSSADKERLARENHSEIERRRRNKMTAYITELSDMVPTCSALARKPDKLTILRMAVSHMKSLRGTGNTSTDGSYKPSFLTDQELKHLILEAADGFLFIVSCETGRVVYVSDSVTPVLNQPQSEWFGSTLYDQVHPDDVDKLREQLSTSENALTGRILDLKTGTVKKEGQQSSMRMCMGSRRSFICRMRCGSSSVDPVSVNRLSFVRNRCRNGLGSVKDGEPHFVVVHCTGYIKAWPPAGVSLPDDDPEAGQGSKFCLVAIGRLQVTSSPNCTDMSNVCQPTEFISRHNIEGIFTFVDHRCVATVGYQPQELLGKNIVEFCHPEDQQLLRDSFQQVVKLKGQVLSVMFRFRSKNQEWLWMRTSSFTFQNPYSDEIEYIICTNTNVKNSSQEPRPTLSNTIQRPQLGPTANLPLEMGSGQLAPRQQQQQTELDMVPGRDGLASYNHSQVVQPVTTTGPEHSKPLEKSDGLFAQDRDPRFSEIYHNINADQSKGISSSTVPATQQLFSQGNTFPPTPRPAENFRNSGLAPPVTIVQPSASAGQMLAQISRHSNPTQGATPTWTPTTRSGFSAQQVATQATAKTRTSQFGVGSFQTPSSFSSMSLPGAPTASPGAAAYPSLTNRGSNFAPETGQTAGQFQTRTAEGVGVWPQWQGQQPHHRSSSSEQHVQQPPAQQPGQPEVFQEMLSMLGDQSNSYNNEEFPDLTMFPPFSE

Structure (SMILES) | DC50 [pM]
C[C@@H]1c2cc(C(=O)N3Cc4ccccc4[C@@H]3CN(C)C)ccc2C(=O)N1[C@H]1CCC(=O)NC1=O [Compound 1, (S)-3-((R)-5-((R)-1-((dimethylamino)methyl)isoin-doline-2-carbonyl)-3-methyl-1-oxoisoindolin-2-yl)piperidine-2,6-dione] | 290
C[C@@H]1c2cc(C(=O)N3Cc4c(ccc(Cl)c4F)[C@@H]3CN(C)C)ccc2C(=O)N1[C@H]1CCC(=O)NC1=O [Compound 2, (S)-3-((R)-5-((R)-5-chloro-1-((dimethylamino)methyl)-4-fluoroisoindoline-2-carbonyl)-3-methyl-1-oxoisoindolin-2-yl)piperidine-2,6-dione] | 330
C[C@@H]1c2cc(C(=O)N3Cc4c(Br)cccc4[C@@H]3CN(C)C)ccc2C(=O)N1[C@H]1CCC(=O)NC1=O [Compound 3, (S)-3-((R)-5-((R)-4-bromo-1-((dimethylamino)methyl)isoin-doline-2-carbonyl)-3-methyl-1-oxoisoindolin-2-yl)piperidine-2,6-dione] | 390
C[C@@H]1c2cc(C(=O)N3Cc4c(ccc(Cl)c4F)[C@@H]3CN3CCCC3)ccc2C(=O)N1[C@H]1CCC(=O)NC1=O [Compound 4, (S)-3-((R)-5-((R)-5-chloro-4-fluoro-1-(pyrrolidin-1-ylmethyl)isoindoline-2-carbonyl)-3-methyl-1-oxoisoindolin-2-yl)piperidine-2,6-dione] | 420
C[C@H]1c2ccc(Cl)c(F)c2CN1C(=O)c1ccc2c3c(cccc13)N(C1CCC(=O)NC1=O)C2=O (stereo partly drawn) [Compound 5, 3-(5-((S)-5-chloro-4-fluoro-1-methylisoindoline-2-carbonyl)-2-oxobenzo[cd]indol-1(2H)-yl)piperidine-2,6-dione] | 420
C[C@@H]1c2cc(C(=O)N3Cc4c(ccc(Cl)c4F)[C@@H]3CN3CCCCC3)ccc2C(=O)N1[C@H]1CCC(=O)NC1=O [Compound 6, (S)-3-((R)-5-((R)-5-chloro-4-fluoro-1-(piperidin-1-ylmethyl)isoindoline-2-carbonyl)-3-methyl-1-oxoisoindolin-2-yl)piperidine-2,6-dione] | 460
C[C@@H]1c2cc(C(=O)N3Cc4c(ccc(Cl)c4F)[C@@H]3CN3CC4CC3C4)ccc2C(=O)N1[C@H]1CCC(=O)NC1=O [Compound 7, (S)-3-((R)-5-((R)-1-((2-azabicyclo[2.1.1]hexan-2-yl)methyl)-5-chloro-4-fluoroisoindoline-2-carbonyl)-3-methyl-1-oxoisoindolin-2-yl)piperidine-2,6-dione] | 480
C[C@@H]1c2cc(C(=O)N3Cc4cc(C(F)(F)F)ccc4[C@@H]3CN(C)C)ccc2C(=O)N1[C@H]1CCC(=O)NC1=O [Compound 8, (S)-3-((R)-5-((R)-1-((dimethylamino)methyl)-5-(trifluoromethyl)isoindoline-2-carbonyl)-3-methyl-1-oxoisoindolin-2-yl)piperidine-2,6-dione] | 610
C[C@@H]1c2cc(C(=O)N3Cc4cc(Br)ccc4[C@@H]3C)ccc2C(=O)N1[C@H]1CCC(=O)NC1=O [Compound 9, (S)-3-((R)-5-((S)-5-bromo-1-methylisoindoline-2-carbonyl)-3-methyl-1-oxoisoindolin-2-yl)piperidine-2,6-dione] | 660
C[C@@H]1c2cc(C(=O)N3Cc4c(ccc(Cl)c4F)[C@@H]3CN3CC4CCC3C4)ccc2C(=O)N1[C@H]1CCC(=O)NC1=O (stereo partly drawn) [Compound 10, (3S)-3-((3R)-5-((1R)-1-((2-azabicyclo[2.2.1]heptan-2-yl)methyl)-5-chloro-4-fluoroisoindoline-2-carbonyl)-3-methyl-1-oxoisoindolin-2-yl)piperidine-2,6-dione] | 710
COc1cccc2c1CN(C(=O)c1ccc3c(c1)[C@@H](C)N([C@H]1CCC(=O)NC1=O)C3=O)[C@H]2CN(C)C [Compound 11, (S)-3-((R)-5-((R)-1-((dimethylamino)methyl)-4-methoxyisoindoline-2-carbonyl)-3-methyl-1-oxoisoindolin-2-yl)piperidine-2,6-dione] | 720
C[C@@H]1c2cc(C(=O)N3Cc4c(ccc(Cl)c4F)[C@@H]3CN3CCC(F)CC3)ccc2C(=O)N1[C@H]1CCC(=O)NC1=O [Compound 12, (S)-3-((R)-5-((R)-5-chloro-4-fluoro-1-((4-fluoropiperidin-1-yl)methyl)isoindoline-2-carbonyl)-3-methyl-1-oxoisoindolin-2-yl)piperidine-2,6-dione] | 730
C[C@@H]1c2cc(C(=O)N3Cc4cc(F)ccc4[C@@H]3C)ccc2C(=O)N1[C@H]1CCC(=O)NC1=O [Compound 13, (S)-3-((R)-5-((S)-5-fluoro-1-methylisoindoline-2-carbonyl)-3-methyl-1-oxoisoindolin-2-yl)piperidine-2,6-dione] | 780
COc1ccc2c(c1Br)CN(C(=O)c1ccc3c(c1)[C@@H](C)N([C@H]1CCC(=O)NC1=O)C3=O)[C@H]2CN(C)C [Compound 14, (S)-3-((R)-5-((R)-4-bromo-1-((dimethylamino)methyl)-5-methoxyisoindoline-2-carbonyl)-3-methyl-1-oxoisoindolin-2-yl)piperidine-2,6-dione] | 950
C[C@@H]1c2cc(C(=O)N3Cc4c(ccc(Cl)c4F)[C@@H]3CN3CC(F)(F)C3)ccc2C(=O)N1[C@H]1CCC(=O)NC1=O [Compound 15, (S)-3-((R)-5-((R)-5-chloro-1-((3,3-difluoroazetidin-1-yl)methyl)-4-fluoroisoindoline-2-carbonyl)-3-methyl-1-oxoisoindolin-2-yl)piperidine-2,6-dione] | 1000
C[C@H]1c2ccc(C(F)(F)F)cc2CN1C(=O)c1ccc2c3c(cccc13)N(C1CCC(=O)NC1=O)C2=O (stereo partly drawn) [Compound 16, 3-(5-((S)-1-methyl-5-(trifluoromethyl)isoindoline-2-carbonyl)-2-oxobenzo[cd]indol-1(2H)-yl)piperidine-2,6-dione] | 1000
C[C@@H]1c2cc(C(=O)N3Cc4c(ccc(Cl)c4F)[C@@H]3CN3CCC3)ccc2C(=O)N1[C@H]1CCC(=O)NC1=O [Compound 17, (S)-3-((R)-5-((R)-1-(azetidin-1-ylmethyl)-5-chloro-4-fluoroisoindoline-2-carbonyl)-3-methyl-1-oxoisoindolin-2-yl)piperidine-2,6-dione] | 1200
Cc1c(C2CC2)ccc2c1CN(C(=O)c1ccc3c(c1)[C@@H](C)N([C@H]1CCC(=O)NC1=O)C3=O)[C@H]2C [Compound 18, (S)-3-((R)-5-((S)-5-cyclopropyl-1,4-dimethylisoindoline-2-carbonyl)-3-methyl-1-oxoisoindolin-2-yl)piperidine-2,6-dione] | 1200
C[C@@H]1c2cc(C(=O)N3Cc4c(ccc(Br)c4F)[C@@H]3C)ccc2C(=O)N1[C@H]1CCC(=O)NC1=O [Compound 19, (S)-3-((R)-5-((S)-5-bromo-4-fluoro-1-methylisoindoline-2-carbonyl)-3-methyl-1-oxoisoindolin-2-yl)piperidine-2,6-dione] | 1200
C[C@@H]1c2cc(C(=O)N3Cc4cc(C(F)(F)F)ccc4[C@@H]3C)c(F)cc2C(=O)N1[C@H]1CCC(=O)NC1=O [Compound 20, (S)-3-((R)-5-fluoro-1-methyl-6-((S)-1-methyl-5-(trifluoromethyl)isoindoline-2-carbonyl)-3-oxoisoindolin-2-yl)piperidine-2,6-dione] | 1300
C[C@@H]1c2cc(C(=O)N3Cc4cc(F)c(F)cc4[C@@H]3C)ccc2C(=O)N1[C@H]1CCC(=O)NC1=O [Compound 21, (S)-3-((R)-5-((S)-5,6-difluoro-1-methylisoindoline-2-carbonyl)-3-methyl-1-oxoisoindolin-2-yl)piperidine-2,6-dione] | 1300
COc1c(Br)ccc2c1CN(C(=O)c1ccc3c(c1)[C@@H](C)N([C@H]1CCC(=O)NC1=O)C3=O)[C@H]2C [Compound 22, (S)-3-((R)-5-((S)-5-bromo-4-methoxy-1-methylisoindoline-2-carbonyl)-3-methyl-1-oxoisoindolin-2-yl)piperidine-2,6-dione] | 1300
CCOc1ccc2c(c1C)CN(C(=O)c1ccc3c(c1)[C@@H](C)N([C@H]1CCC(=O)NC1=O)C3=O)[C@H]2C [Compound 23, (S)-3-((R)-5-((S)-5-ethoxy-1,4-dimethylisoindoline-2-carbonyl)-3-methyl-1-oxoisoindolin-2-yl)piperidine-2,6-dione] | 1300
C[C@@H]1c2cc(C(=O)N3Cc4c(ccc(Br)c4Cl)[C@@H]3C)ccc2C(=O)N1[C@H]1CCC(=O)NC1=O [Compound 24, (S)-3-((R)-5-((S)-5-bromo-4-chloro-1-methylisoindoline-2-carbonyl)-3-methyl-1-oxoisoindolin-2-yl)piperidine-2,6-dione] | 1300
Cc1ccc2c(c1F)CN(C(=O)c1cc3c(cc1F)C(=O)N([C@H]1CCC(=O)NC1=O)[C@@H]3C)[C@H]2C [Compound 25, (S)-3-((R)-5-fluoro-6-((S)-4-fluoro-1,5-dimethylisoindoline-2-carbonyl)-1-methyl-3-oxoisoindolin-2-yl)piperidine-2,6-dione] | 1600
